The text below walks through data of patent US20220135622A1, “ANTIBACTERIAL PEPTIDES AND METHODS OF USE” (priority 2019, published 2022).

Square brackets hold non-standard residues; d marks the D form. Peptide text beside a SMILES is read from it. Dap = NC[C@H](N)C(=O)O

Series [1] concerns E. coli K-12 (pmrA^G53E and mcr-1). As to the kind of experiment: MIC against E. coli K-12 with PMX-resistance determinants (summary). It is filed as cell-based, Escherichia coli. Conditions: range over pmrA and mcr-1 strains. The method, then:
(§1) Bacterial growth conditions. LB or Mueller Hinton II cation-adjusted broth (MHB II, BBL 212322) was prepared according to manufacturer's instructions and supplemented with arabinose at 0.02% for overnight growth or at indicated concentrations in the description of the figures. Bacterial cultures were grown at 37° C. When appropriate, media was supplemented with kanamycin (50 μg/mL), carbenicillin (50 μg/mL), chloramphenicol (12.5 or 25 μg/mL), hygromycin (200 μg/mL), and/or gentamicin (10 μg/mL).
(§2) Peptide sensitivity and MIC assays. Lyophilized peptides (Smartox Biotechnology, CPC Scientific. ABclonal) were solubilized to 10 mM in Tris buffer, pH 8, prior to making a 2-fold dilution series in MHBII cation adjusted broth with highest final assay concentration of 400-800 μM. Bacteria were grown to log phase and added to final OD600˜0.001. The final EDTA concentration was 0.5 mM for E. coli strains and 0.125 mM for USA300. The final volume of 10 μL/well in a 384 well black, clear bottom plate (Corning) was spun <1 min at <250×g and then incubated at 37° C. After 4 h, an equal volume (10 μL) of BacTiter-Glo™ (Promega) was added to each well and luminescence was read after 5 min on an EnVision plate reader (PerkinElmer). […] Plates were incubated at 37° C. for 20 h before measuring OD600 with an EnVision plate reader.

Another series deals with K. pneumoniae. It is filed as cell-based, Klebsiella pneumoniae. Conditions: Table 5; ATCC 43816, WT. Put shortly:
(§3)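 MHB II cation-adjusted, peptides 2-fold series (top 400-800 μM final), inoculum OD600 ~0.0002, EDTA 0.5 mM (E. coli) / 0.125 mM (USA300) final. 37° C, 20 h, OD600 read-out.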

The subject of another series is red blood cell. As to the kind of experiment: Red blood cell lysis assay. Format: cell-based. Conditions: 50 μM, after 4 hrs, FIG. 16B.
For a further series, the system named is E. coli-ATCC 25922. As to the kind of experiment: MIC assay, E. coli ATCC 25922. Conditions: Table 5; E. coli ATCC 25922, WT with O-antigen. Format: cell-based, Escherichia coli. The method, then: as §1, §2
Another series has as its system E. coli mcr-1. It is filed as cell-based, Escherichia coli. Conditions: Table 5; colistin^R. Put shortly: as §3
The next series deals with E. coli BW25113. It is filed as cell-based, Escherichia coli. Conditions: Table 5; E. coli K-12 (BW25113), WT. Put shortly:
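Growth inhibition: log-phase cells (OD600 ~0.001), peptides in 2-fold series up to 400–800 μM in MHB II, EDTA 0.5 mM (E. coli) or 0.125 mM (USA300), 4 h at 37 °C, ATP luminescence readout. MICs: inoculum at OD600 ~0.0002, with or without EDTA, 20 h at 37 °C, OD600 endpoint.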

The next series concerns E. coli K12. As to the kind of experiment: Time-kill: colony forming units of E. coli K12 over time. Format: cell-based, Escherichia coli. To be noted: E. coli K12, FIG. 16A.
For a further series, the system named is E. coli pmrA^G53Y. As to the kind of experiment: MIC assay, E. coli pmrA^G53Y (BW25113). It is filed as cell-based, Escherichia coli. Conditions: Table 5; colistin^R. The method, then:
as §1, §2

The subject of the next series is S. aureus USA300. As to the kind of experiment: MIC assay, S. aureus USA300. Format: cell-based, Staphylococcus aureus. Conditions: Table 5; USA300 Gram-positive control. The method, boiled down:
as §3

For a further series, the system named is E. coli imp4213. As to the kind of experiment: MIC assay, E. coli imp4213. It is filed as cell-based, Escherichia coli. To be noted: Table 5; permeable. Put shortly: as §3
A further series has as its system E. cloacae. As to the kind of experiment: MIC assay, E. cloacae. Format: cell-based, Enterobacter cloacae. Conditions: Table 5; ATCC 222, WT. The method, then: as §1, §2
The next series relates to A. baumannii. Format: cell-based, Acinetobacter baumannii. To be noted: Table 5; ATCC 19606, WT. The method, boiled down: as §3
The subject of another series is P. aeruginosa. It is filed as cell-based, Pseudomonas aeruginosa. Conditions: Table 5; PA-14, WT. Put shortly: as §3
The test system of series [2] is Enterobacter cloacae, Klebsiella pneumoniae, Acinetobacter baumannii, and Pseudomonas aeruginosa. As to the kind of experiment: MIC against wild-type bacterial pathogens (summary over species). It is filed as cell-based. Conditions: range over the four wild-type pathogens. The method, then:
as §1, §2

The test system of series [3] is Staphylococcus aureus (USA300). As to the kind of experiment: Bacterial growth inhibition, Staphylococcus aureus (USA300). Format: cell-based. Conditions: Gram-positive bacterium lacking LPS. The method, then:
as §1, §2

For `CSCC[C@H](NC(=O)[C@@H]1CCCN1C(=O)[C@H](Cc1ccc(O)cc1)NC(C)=O)C(=O)N[C@@H](CN)C(=O)N[C@@H](Cc1ccccc1)C(=O)N[C@@H](CCCNC(=N)N)C(=O)N[C@@H](CCCNC(=N)N)C(=O)N[C@@H](Cc1ccccc1)C(=O)N[C@@H](CC(C)C)C(=O)N[C@@H](CCC(=O)O)C(=O)N[C@@H](CCCCN)C(=O)N[C@@H](Cc1c[nH]c2ccccc12)C(=O)NCC(=O)N[C@@H](CC(C)C)C(=O)N[C@@H](CC(C)C)C(=O)N[C@@H](CCCNC(=N)N)C(N)=O` [SEQ ID NO: 69, YPM(Dap)FRRFLEKWGLLR] (Ac-YPM[Dap]FRRFLEKWGLLR-NH2), the MICs in series [1] was 12.5 to 25 µM; in the series with K. pneumoniae it was 100 µM; against E. coli-ATCC 25922 it was 50 µM; in the series with E. coli mcr-1, 25 µM; against E. coli BW25113 it was 25 µM; against E. coli pmrA^G53Y it was 12.5 µM. Besides, the MICs with S. aureus USA300 was 400 µM; against E. coli imp4213, 6.25 µM; in the series on E. cloacae, 12.5 µM; against A. baumannii, 12.5 µM; in the series with P. aeruginosa, 200 µM; in series [2], 12.5 to 200 µM. In addition, the “red blood cell lysis” value in the series on red blood cell is reported as “no observe lysis”. The “time-kill kinetics (CFUs over time)” value in the series on E. coli K12 is reported as “bactericidal”. Further, the growth inhibition result in [3] was “impacted only at very high concentrations”.
